Consider two compounds from patent EP1200099B1, “SYNERGISTIC COMPOSITION COMPRISING DAUNORUBICIN DERIVATIVES AND ANTI[…]” (Pharmacia Italia S.p.A., priority 1999, dated 2001).

The subject of the data set is disseminated L1210 murine leukemia. The experiment in a line: Antileukemic activity on disseminated L1210 murine leukemia (in vivo survival). On the set-up: species or system mouse CD2F1. The following applies: for toxicity (in words): single agents: gemcitabine 15 and 60 mg/kg ip day 1, PNU 159548 1 and 1.5 mg/kg iv day 1. From the text:
The superadditive actions of the combination preparation of the present invention may be shown for instance by in vivo tests for the antileukemic activity on disseminated L1210 murine leukemia. The combination of Ia with gemcitabine (Table 1) or 5-Fluorouracil tested at the different doses and schedules, produces favorable ILS% values (Increase in life span: [(median survival time of treated mice/median survival time of controls)x 100]-100), indicating a synergistic effect.
By combining gemcitabine and PNU 159548 at the same doses and with the same schedule, an increase of activity with ILS% values of 117 and 204 were observed, indicating a synergistic effect as shown by the combination index (CI) of […], respectively.
For these experiments Ia was solubilized in [Cremophor® /EtOH = 6.5:3.5]/[normal saline]=20/80 v/v, while standard pharmaceutical preparation were used for the antimetabolite compounds.

The mark [1] stands for this setting: gemcitabine alone, ip day +1, 15 mg/kg/day.
Setting [2] is: gemcitabine alone, ip day +1, 60 mg/kg/day.
Where [3] appears, read: PNU 159548 alone, iv day +1, 1 mg/kg/day.
The mark [4] stands for this setting: PNU 159548 alone, iv day +1, 1.5 mg/kg/day.

Molecules are shown by their SMILES.

For the compound `Nc1ccn([C@@H]2O[C@H](CO)[C@@H](O)C2(F)F)c(=O)n1` [Gemcitabine, gemcitabine], the “toxicity (in words)” value was “without toxicity”. Besides, under setting [1], the ILS% was determined as 50%, the “LTS: long-term survivors (>60 days) at the end of the experiments” value (from here on “LTS: long-term survivors (>60 days)”) was 0/10 and the “TOX: Number of toxic deaths/number of mice” value is 0/10. Moreover, under setting [2], the ILS% was determined as 83%, the “LTS: long-term survivors (>60 days)” value is 0/20 and the “TOX: Number of toxic deaths/number of mice” value is listed as 0/20.

On to `CC(=O)[C@]1(O)Cc2c(O)c3c(c(O)c2[C@@H](O[C@H]2C[C@H](N4CC4)[C@H](OS(C)(=O)=O)[C@H](C)O2)C1)C(=O)c1ccccc1C3=O` [PNU 159548, 4-demethoxy-3'-deamino-3'-aziridinyl-4'-methansulfonyl daunorubicin], for which the “toxicity (in words)” value was “without toxicity”. Besides, under setting [3], the “LTS: long-term survivors (>60 days)” value is on record as 0/10 and the “TOX: Number of toxic deaths/number of mice” value was 0/10. In addition, for the setting “PNU 159548 alone, iv day +1, 1 mg/kg/day, L1210 cells 10^5/mouse IV on Day 0”, the ILS% is recorded as 33%. Moreover, under setting [4], the ILS% worked out at 67%, the “LTS: long-term survivors (>60 days)” value is given as 0/20 and the “TOX: Number of toxic deaths/number of mice” value was 0/20.
